# Assays:
# MRSA (ATCC BAA-44) [1] = test: Sequential passaging drug resistance development study in MRSA; assay type: cell-based, Staphylococcus aureus; conditions: for MIC: Staphylococcus aureus, read-out: initial MIC
# Text: FIG. 4 is a chart showing the drug resistance development of 6c in comparison with vancomycin and ofloxacin in MRSA (ATCC BAA-44);
# (§1) Typical clinical antibiotics can readily produce genetic mutants when used to treat the same bacterial over and over again, which is the major cause of antibiotic drug resistance in many pathogenic bacteria these days and of emergence of superbugs. To test if 6c can develop drug resistance in either MSSA (ATCC 29213) or MRSA (ATCC BAA-44), we performed sequential passaging studies with 6c. Briefly, the MIC values for S. aureus strains to be tested were determined first. Then, cells grown in the initial MIC dose of the compound or antibiotics from the previous passage were once again harvested after 24-h incubation period and assayed for a new MIC. The process was repeated for 56 passages against MRSA (ATCC BAA-44).
# MRSA (ATCC BAA-44) [2] = test: Local wound infection model, topical treatment; assay type: in vivo, mice (C57BL/6); conditions: single topical dose 80 μg per wound at day 1 post-infection, CFU at day 2
# Protocol: FIG. 7 is a chart showing the effect of the treatment of 6c or vancomycin (via topical treatment, single dose at 80 μg per wound) on the bacterial burden in wounds of mice (C57BL/6 mice, male, 8-12 weeks old) infected by MRSA at day 2 post-wounding (mean±s·d, n=3 mice per group). The CFU counts from homogenized tissue collected from each mouse was run in duplicates. *: p<0.05 vs control;
# (§2) To validate the in vivo antibacterial efficacy, we conducted the studies of treating the infections of local wound infection as well as non-lethal systemic infection induced by MRSA. For local infection, a full-thickness, circular wound was generated on the dorsal surface of each mouse (C57BL/6) using a 6-mm sterile biopsy punch after the mouse was anesthetized, followed by inoculating with 1×10^6 CFU MRSA (ATCC BAA-44) in the wounded skin at day 0 and then a defined amount of 6c or vancomycin (80 μg in 40 μL sterile saline per wound) was topically applied once to the wounds of mice at day 1 post-infection. The CFU number of viable bacteria in the wound was quantified at day 2 post-infection. […] The CFU number of viable bacteria was counted at day 2 post-infection from major organs including lung, kidney, spleen, liver, and peritoneal tissues. […]
# [3] = test system: MRSA (ATCC BAA-44 and ATCC BAA-1717); test: microbe, parasite or virus in culture; assay type: cell-based, Staphylococcus aureus
# Protocol: (§3) The MICs were determined by the broth microdilution method by following Clinical and Laboratory Standards Institute (CLSI) guidelines
# (§4) Spectroscopic characterization and X-ray structural determination unequivocally confirmed the identities of all the five new compositions of matter, that is compounds denoted as 6a through 6e.
# MRSA (ATCC BAA-44) [4] = test: Checkerboard assay of 6c with oxacillin; assay type: cell-based, Staphylococcus aureus; conditions: 6c combined with oxacillin
# Protocol: MIC of oxacillin in the presence of 0.6 μg/mL of 6c. ^bMIC of 6c in the presence of 4 μg/mL of oxacillin. The MICs were determined by the broth microdilution method by following Clinical and Laboratory Standards Institute (CLSI) guidelines.
# The checkerboard assay was performed in a 96-well plate using the established method. Specifically, the antibiotic oxacillin was 2-fold serially diluted along the row-axis and 6c was 2-fold serially diluted along the column-axis to create a matrix in which each well consists of a combination of both at different concentrations. Each well was inoculated with MRSA (ATCC BAA-44) to yield approximately 5×10^5 CFU/mL in a 100-μL final volume, incubated for 20 h at 37° C. and examined for visibility to determine the MIC. Dividing the MIC of 6c in the presence of antibiotic by the MIC of 6c alone was used to calculate the fractional inhibitory concentration (FIC) of 6c. Similarly, dividing the MIC of antibiotic in the presence of 6c by the MIC of the antibiotic alone was used to calculate the fractional inhibitory concentration (FIC) of the antibiotic. The FIC index was calculated by the summation of both FIC values. The FIC index was interpreted as synergistic, additive, or antagonistic for values of x≤0.5, 0.5<x<4, or ≥4, respectively.
# MRSA^oflR = test: MIC against ofloxacin-resistant mutant MRSA from day 56 passage (cross-resistance); assay type: cell-based; conditions: Staphylococcus aureus
# Protocol: as §1
# MSSA (ATCC 29213) = test: Sequential passaging drug resistance development study in MSSA; assay type: cell-based, Staphylococcus aureus; conditions: MSSA ATCC 29213, sequential passaging, vs vancomycin and ciprofloxacin
# Text: FIG. 5 is a chart showing the drug resistance development of 6c in comparison with vancomycin and ciprofloxacin in MSSA (ATCC SA 29213);
# as §1
# [5] = test system: vancomycin-intermediate and daptomycin non-susceptible strain of MRSA (ATCC 700699); test: MIC by broth microdilution (CLSI) against vancomycin-intermediate, daptomycin non-susceptible MRSA; assay type: cell-based; conditions: Staphylococcus aureus, ATCC 700699 / MRSA / VISA
# Protocol: as §3, §4
# MRSA = test: Non-lethal systemic infection model, i.p. treatment; assay type: in vivo, mice (C57BL/6); conditions: single dose 15 mg/kg i.p. at day 1 post-infection, CFU at day 2; p<0.05
# Text: FIG. 8 is a chart showing the effect of the treatment of 6c (via i.p injection, […]) on the bacterial burden in lung (b), spleen (c), kidney (d), liver (e), and peritoneal (f) tissues of mice (C57BL/6 mice, male, 8-12 weeks old) infected by MRSA (mean±s·d, n=8 mice per group). The CFU counts from homogenized tissue collected from each mouse was run in duplicates. *: p<0.05, **: p<0.01, and ***: p<0.001.
# as §2
# MRSA^vanR = test: MIC against vancomycin-resistant mutant MRSA from day 56 passage (cross-resistance); assay type: cell-based; conditions: Staphylococcus aureus
# Protocol: as §1
# [6] = test system: MSSA (ATCC 29213 and ATCC 6538); test: MIC by broth microdilution (CLSI) against MSSA; assay type: cell-based, Staphylococcus aureus; conditions: two strains of MSSA
# Protocol: as §3, §4
# [7] = test system: biofilm formed by MRSA (ATCC BAA-44); test: Biofilm inhibition assay; assay type: cell-based, Staphylococcus aureus; conditions: 24 h
# Protocol: FIG. 6 is a chart showing the effect of 6c on the inhibition of biofilm formed by MRSA (ATCC BAA-44). Percentage of viable bacteria in the biofilm formed by MRSA in response to the treatment of Lawsone-derivatives (6a, 6b, 6c, 6d, and 6e) at varying concentrations (0-30 μM) (mean±s·d, n=3 independent experiments);
# By observing the antibacterial efficacy of 6c against planktonic phase of MRSA, we next examined whether 6c could be effective against biofilm phase of MRSA. For this, the biofilm inhibition assay was performed using the established procedure. […] For the quantification of biofilm mass, the solutions in the plate with biofilm were replaced with a 100 μL solution containing 0.5% of crystal violet and incubated for 30 min at room temperature in the dark. […] The absorbance of the biofilm was measured at 595 nm using a microplate reader and the results were expressed as percentage changes with respect to the control (without compounds). For the quantification of the number of viable bacteria in the biofilm, the biofilms were gently destroyed and plated on TSA after serial dilutions of each suspension. The number of viable bacteria in the sample was obtained using agar plate counting method as described above and results were expressed as percentage changes with respect to the control.
# [8] = at 56 passages (end of measurements)
compound,measurement,setting,value
CN[C@H](CC(C)C)C(=O)N[C@H]1C(=O)N[C@@H](CC(N)=O)C(=O)N[C@H]2C(=O)N[C@H]3C(=O)N[C@H](C(=O)N[C@H](C(=O)O)c4cc(O)cc(O)c4-c4cc3ccc4O)[C@H](O)c3ccc(c(Cl)c3)Oc3cc2cc(c3O[C@@H]2O[C@H](CO)[C@@H](O)[C@H](O)[C@H]2O[C@H]2C[C@](C)(N)[C@H](O)[C@H](C)O2)Oc2ccc(cc2Cl)[C@H]1O [vancomycin],MIC,MRSA (ATCC BAA-44) [1],1 mg/L
same,increase of MIC,MRSA (ATCC BAA-44) [1]; [8],128 fold
same,increase of MIC,MRSA (ATCC BAA-44) [1]; by 51 passages,4 fold
same,reduction of MRSA numbers (CFU) in the wound vs control,MRSA (ATCC BAA-44) [2],~50%
same,MIC,[3]; Staphylococcus aureus,~1 mg/L
"CCCCc1ccc(CC2=C(O)C(=O)c3ccccc3C2=O)cc1 [6c, 2-[(4-butylphenyl)methyl]-3-hydroxy-[1,4]naphthoquinone]",FIC index interpretation,MRSA (ATCC BAA-44) [4],synergistic (x≤0.5)
same,FIC,"MRSA (ATCC BAA-44) [4]; MRSA ATCC BAA-44, 20 h",0.31
same,MIC,MRSA^oflR,1.25 mg/L
same,drug resistance profile,MSSA (ATCC 29213),improved drug resistance profile
same,MIC,[5],1.25 to 2.5 mg/L
same,MIC,MRSA (ATCC BAA-44) [1],1.25 mg/L
same,increase of MIC,MRSA (ATCC BAA-44) [1]; [8],4 fold
same,change of MIC,MRSA (ATCC BAA-44) [1]; up to 33 passages,largely unchanged
same,reduction of MRSA numbers (CFU) in the wound vs control,MRSA (ATCC BAA-44) [2],60%
same,MIC,[3]; Staphylococcus aureus,1.25 to 2.5 mg/L
same,"bacterial burdens in kidney, liver, and peritoneal tissues vs vehicle control",MRSA,significantly reduced
same,MIC,MRSA^vanR,5 mg/L
same,antimicrobial activity (MIC) compared with ofloxacin and ciprofloxacin,[6],comparable
same,suppression of biofilm formation,[7]; dose of 1×MIC (5 μM or 1.5 μg/mL),40%
same,suppression of biofilm formation,[7]; dose of 3×MIC (15 μM or 4.5 μg/mL),90%
CC1COc2c(N3CCN(C)CC3)c(F)cc3c(=O)c(C(=O)O)cn1c23 (stereo not shown) [ofloxacin],MIC,MRSA (ATCC BAA-44) [1],8 mg/L
same,increase of MIC,MRSA (ATCC BAA-44) [1]; after 5 passages,4 fold
same,increase of MIC,MRSA (ATCC BAA-44) [1]; at 35 passages,32 fold
same,increase of MIC,MRSA (ATCC BAA-44) [1]; [8],64 fold
CCCCCCCCCC(=O)N[C@@H](Cc1c[nH]c2ccccc12)C(=O)N[C@H](CC(N)=O)C(=O)N[C@@H](CC(=O)O)C(=O)N[C@@H]1C(=O)NCC(=O)N[C@@H](CCCN)C(=O)N[C@@H](CC(=O)O)C(=O)N[C@H](C)C(=O)N[C@@H](CC(=O)O)C(=O)NCC(=O)N[C@H](CO)C(=O)N[C@@H]([C@H](C)CC(=O)O)C(=O)N[C@@H](CC(=O)c2ccccc2N)C(=O)O[C@@H]1C [daptomycin],MIC,"[3]; MRSA ATCC BAA-44 and ATCC BAA-1717, broth microdilution",~1 mg/L

# Source: patent US12433853B2, “Rationally designed lawsone derivatives as antimicrobials against multidrug-resistant Staphylococcus aureus” (KENT STATE UNIVERSITY, priority 2019, dated 2025)
